The source of these data is article PMC10728895, “Stapled Phd Peptides Inhibit Doc Toxin Induced Growth Arrest in Salmonella” (ACS Chemical Biology, 2023).

Molecules are shown by their SMILES. Positions of bridges follow the written chain, without caps; N, C: chain ends. Non-standard residues stand in square brackets, D forms with d. Residues, ends and D or L forms follow the SMILES beside them. S5 = C=CCCC[C@](C)(N)C(=O)O; Nle = CCCC[C@H](N)C(=O)O

This assay relates to DocSTm toxin. The note with it: DocSTm 5 μM, peptide 50 μM; for Average Tm of DocSTm in the presence of peptide: pH 8.0, average ± SD, replicates 3-48 (Table S3). As to the method:
The thermal shift assay was performed using a Mx3005P qPCR System (Agilent) collecting fluorescence data with a temperature ramp of 25 to 95 °C. Samples were prepared in a buffer containing 20 mM K2HPO4 and 50 mM (NH4)2SO4 at pH 8.0, with a final concentration of recombinant Doc protein at 5 μM and Phd peptides at 50 μM. SYPRO Orange dye (Sigma-Aldrich, 5000X stock in DMSO) was used to monitor protein denaturation in a final concentration of 3×. The final sample volume was 20 μL. Each condition was prepared in triplicate in each independent experiment. The melting curves were plotted using GraphPad Prism 9 (GraphPad Software, USA), and the melting temperatures were obtained by fitting the sigmoidal section of the curves to a Boltzmann sigmoid function. For the calculation of thermal shifts ΔTm, the average melting temperature of free DocSTm toxin as determined in the respective peptide measurement cycles was subtracted from the average melting temperature of DocSTm in the presence of the peptide (Table S3).

As to `CCCC[C@H](NC(=O)[C@H](Cc1c[nH]c2ccccc12)NC(C)=O)C(=O)N[C@@H](CCCNC(=N)N)C(=O)N[C@@H](CCCNC(=N)N)C(=O)N[C@@H](CCC(=O)O)C(=O)N[C@@H](Cc1ccccc1)C(=O)N[C@@H](CCCNC(=N)N)C(=O)N[C@@H](CCCNC(=N)N)C(=O)N[C@H](C(=O)N[C@@H](CCCC)C(=O)N[C@@H](CCCNC(=N)N)C(=O)N[C@H](C(=O)N[C@@H](Cc1c[nH]cn1)C(=O)NCC(=O)N[C@@H](CCCNC(=N)N)C(=O)N[C@@H](CCC(=O)O)C(=O)N[C@@H](CC(C)C)C(=O)N[C@@H](CCCNC(=N)N)C(=O)N[C@@H](CCC(=O)O)C(=O)N[C@@H](CC(C)C)C(=O)N[C@@H](C)C(=O)N[C@@H](CC(=O)O)C(=O)N[C@@H](CCCCN)C(=O)O)C(C)C)[C@@H](C)CC` [Peptide 15] (Ac-W[Nle]RREFRRI[Nle]RVHGRELRELADK-OH), the “Average Tm of DocSTm in the presence of peptide” value (“Average Tm of DocSTm” below) was 57.8 ± 0.7 °C. In addition, for the setting “SYPRO Orange 3×, 20 mM K2HPO4, 50 mM (NH4)2SO4, pH 8.0, average Tm with peptide minus average Tm of free DocSTm, mean ± SD”, the “ΔTm (thermal shift) of DocSTm in the presence of peptide” value was 11–13 °C. Take `CCCC[C@H](NC(=O)[C@H](Cc1c[nH]c2ccccc12)NC(C)=O)C(=O)N[C@@H](CC(=O)O)C(=O)N[C@@H](CC(=O)O)C(=O)N[C@@H](CCC(=O)O)C(=O)N[C@@H](Cc1ccccc1)C(=O)N[C@@H](C)C(=O)N[C@@H](C)C(=O)N[C@H](C(=O)N[C@@H](CCCC)C(=O)N[C@@H](C)C(=O)N[C@H](C(=O)N[C@@H](Cc1c[nH]cn1)C(=O)NCC(=O)N[C@@H](CC(N)=O)C(=O)N[C@@H](CCC(=O)O)C(=O)N[C@@H](CC(C)C)C(=O)N[C@@H](CCCNC(=N)N)C(=O)N[C@@H](CCC(=O)O)C(=O)N[C@@H](CC(C)C)C(=O)N[C@@H](C)C(=O)N[C@@H](CCCNC(=N)N)C(=O)N[C@@H](CCCCN)C(=O)O)C(C)C)[C@@H](C)CC` [Peptide 13] (Ac-W[Nle]DDEFAAI[Nle]AVHGNELRELARK-OH): the “Average Tm of DocSTm” value was 72.7 ± 0.4 °C. With `CCCC[C@H](NC(=O)[C@H](Cc1c[nH]c2ccccc12)NC(C)=O)C(=O)N[C@@H](CC(=O)O)C(=O)N[C@@H](CC(=O)O)C(=O)N[C@@H](CCC(=O)O)C(=O)N[C@@H](Cc1ccccc1)C(=O)N[C@@H](C)C(=O)N[C@@H](CCCNC(=N)N)C(=O)N[C@H](C(=O)N[C@@H](CCCC)C(=O)N[C@@H](C)C(=O)N[C@H](C(=O)N[C@@H](Cc1c[nH]cn1)C(=O)NCC(=O)N[C@@H](CC(N)=O)C(=O)N[C@@H](CCC(=O)O)C(=O)N[C@@H](CC(C)C)C(=O)N[C@@H](CCCNC(=N)N)C(=O)N[C@@H](CCC(=O)O)C(=O)N[C@@H](CC(C)C)C(=O)N[C@@H](C)C(=O)N[C@@H](CC(=O)O)C(=O)N[C@@H](CCCCN)C(=O)O)C(C)C)[C@@H](C)CC` [Peptide 6] (Ac-W[Nle]DDEFARI[Nle]AVHGNELRELADK-OH), the “Average Tm of DocSTm” value came to 67.3 ± 1.4 °C. Regarding `CCCC[C@H](NC(=O)[C@H](Cc1c[nH]c2ccccc12)NC(C)=O)C(=O)N[C@@H](CCCNC(=N)N)C(=O)N[C@@H](CC(N)=O)C(=O)N[C@@H](CCC(N)=O)C(=O)N[C@@H](Cc1ccccc1)C(=O)N[C@@H](C)C(=O)N[C@@H](C)C(=O)N[C@H](C(=O)N[C@@H](CCCC)C(=O)N[C@@H](CCCNC(=N)N)C(=O)N[C@H](C(=O)N[C@@H](Cc1c[nH]cn1)C(=O)NCC(=O)N[C@@H](CC(N)=O)C(=O)N[C@@H](CCC(N)=O)C(=O)N[C@@H](CC(C)C)C(=O)N[C@@H](CCCNC(=N)N)C(=O)N[C@@H](CCC(=O)O)C(=O)N[C@@H](CC(C)C)C(=O)N[C@@H](C)C(=O)N[C@@H](CC(N)=O)C(=O)N[C@@H](CCCCN)C(=O)O)C(C)C)[C@@H](C)CC` [Peptide 22] (Ac-W[Nle]RNQFAAI[Nle]RVHGNQLRELANK-OH), the “Average Tm of DocSTm” value is 54.7 ± 3.1 °C.

Turning to `CCCC[C@H](NC(=O)[C@H](Cc1c[nH]c2ccccc12)NC(C)=O)C(=O)N[C@@H](CC(=O)O)C(=O)N[C@@H](CC(=O)O)C(=O)N[C@@H](CCC(=O)O)C(=O)N[C@@H](Cc1ccccc1)C(=O)N[C@@H](C)C(=O)N[C@@H](C)C(=O)N[C@H](C(=O)N[C@@H](CCCC)C(=O)N[C@@H](C)C(=O)N[C@H](C(=O)N[C@@H](Cc1c[nH]cn1)C(=O)NCC(=O)N[C@@H](CC(N)=O)C(=O)N[C@@H](CCC(=O)O)C(=O)N[C@@H](CC(C)C)C(=O)N[C@@H](CCCNC(=N)N)C(=O)N[C@@H](CCCNC(=N)N)C(=O)N[C@@H](CC(C)C)C(=O)N[C@@H](C)C(=O)N[C@@H](CC(=O)O)C(=O)N[C@@H](CCCCN)C(=O)O)C(C)C)[C@@H](C)CC` [Peptide 11] (Ac-W[Nle]DDEFAAI[Nle]AVHGNELRRLADK-OH), the “Average Tm of DocSTm” value was determined as 73.5 ± 1.3 °C. Consider `CCCC[C@H](NC(=O)[C@H](Cc1c[nH]c2ccccc12)NC(C)=O)C(=O)N[C@@H](CCCNC(=N)N)C(=O)N[C@@H](CC(=O)O)C(=O)N[C@@H](CCC(=O)O)C(=O)N[C@@H](Cc1ccccc1)C(=O)N[C@@H](C)C(=O)N[C@@H](C)C(=O)N[C@H](C(=O)N[C@@H](CCCC)C(=O)N[C@@H](C)C(=O)N[C@H](C(=O)N[C@@H](Cc1c[nH]cn1)C(=O)NCC(=O)N[C@@H](CC(N)=O)C(=O)N[C@@H](CCC(=O)O)C(=O)N[C@@H](CC(C)C)C(=O)N[C@@H](CCCNC(=N)N)C(=O)N[C@@H](CCC(=O)O)C(=O)N[C@@H](CC(C)C)C(=O)N[C@@H](C)C(=O)N[C@@H](CC(=O)O)C(=O)N[C@@H](CCCCN)C(=O)O)C(C)C)[C@@H](C)CC` [Peptide 2] (Ac-W[Nle]RDEFAAI[Nle]AVHGNELRELADK-OH), for which the “Average Tm of DocSTm” value came out at 66.4 ± 0.2 °C. Still for that read-out and setting: as for `CCCC[C@H](NC(=O)[C@H](Cc1c[nH]c2ccccc12)NC(C)=O)C(=O)N[C@@]1(C)CCCC=CCCC[C@@](C)(C(=O)N[C@@H](C)C(=O)N[C@H](C(=O)N[C@@H](CCCC)C(=O)N[C@@H](C)C(=O)N[C@H](C(=O)N[C@@H](Cc2c[nH]cn2)C(=O)NCC(=O)N[C@@H](CCCNC(=N)N)C(=O)N[C@@H](CCC(N)=O)C(=O)N[C@@H](CC(C)C)C(=O)N[C@@H](CCCNC(=N)N)C(=O)N[C@@H](CCCNC(=N)N)C(=O)N[C@@H](CC(C)C)C(=O)N[C@@H](C)C(=O)N[C@@H](CCCNC(=N)N)C(=O)N[C@@H](CCCCN)C(=O)O)C(C)C)[C@@H](C)CC)NC(=O)[C@H](Cc2ccccc2)NC(=O)[C@H](CCC(=O)O)NC(=O)[C@H](CC(N)=O)NC1=O` [Peptide 34] (Ac-W[Nle][S5]NEF[S5]AI[Nle]AVHGRQLRRLARK-OH; staple 3-7), the figure is 58.9 ± 1.1 °C; as for `CCCC[C@H](NC(=O)[C@H](Cc1c[nH]c2ccccc12)NC(C)=O)C(=O)N[C@@H](CCCNC(=N)N)C(=O)N[C@@H](CC(N)=O)C(=O)N[C@@H](CCC(N)=O)C(=O)N[C@@H](Cc1ccccc1)C(=O)N[C@@H](CCCNC(=N)N)C(=O)N[C@@H](C)C(=O)N[C@H](C(=O)N[C@@H](CCCC)C(=O)N[C@@H](CCCNC(=N)N)C(=O)N[C@H](C(=O)N[C@@H](Cc1c[nH]cn1)C(=O)NCC(=O)N[C@@]1(C)CCCC=CCCC[C@@](C)(C(=O)N[C@@H](CC(C)C)C(=O)N[C@@H](C)C(=O)N[C@@H](CC(N)=O)C(=O)N[C@@H](CCCCN)C(=O)O)NC(=O)[C@H](CCCNC(=N)N)NC(=O)[C@H](CC(C)C)NC(=O)[C@H](CCC(N)=O)NC1=O)C(C)C)[C@@H](C)CC` [Peptide 25] (Ac-W[Nle]RNQFRAI[Nle]RVHG[S5]QLR[S5]LANK-OH; staple 15-19), 56.4 ± 3.0 °C; as for `CCCC[C@H](NC(=O)[C@H](Cc1c[nH]c2ccccc12)NC(C)=O)C(=O)N[C@@H](CC(=O)O)C(=O)N[C@@H](CC(=O)O)C(=O)N[C@@H](CCC(=O)O)C(=O)N[C@@H](Cc1ccccc1)C(=O)N[C@@H](C)C(=O)N[C@@H](C)C(=O)N[C@H](C(=O)N[C@@H](CCCC)C(=O)N[C@@H](CCCNC(=N)N)C(=O)N[C@H](C(=O)N[C@@H](Cc1c[nH]cn1)C(=O)NCC(=O)N[C@@H](CC(N)=O)C(=O)N[C@@H](CCC(=O)O)C(=O)N[C@@H](CC(C)C)C(=O)N[C@@H](CCCNC(=N)N)C(=O)N[C@@H](CCC(=O)O)C(=O)N[C@@H](CC(C)C)C(=O)N[C@@H](C)C(=O)N[C@@H](CC(=O)O)C(=O)N[C@@H](CCCCN)C(=O)O)C(C)C)[C@@H](C)CC` [Peptide 7] (Ac-W[Nle]DDEFAAI[Nle]RVHGNELRELADK-OH), 70.2 ± 0.3 °C. As to `CCCC[C@H](NC(=O)[C@H](Cc1c[nH]c2ccccc12)NC(C)=O)C(=O)N[C@@H](CC(=O)O)C(=O)N[C@@H](CC(=O)O)C(=O)N[C@@H](CCCNC(=N)N)C(=O)N[C@@H](Cc1ccccc1)C(=O)N[C@@H](C)C(=O)N[C@@H](C)C(=O)N[C@H](C(=O)N[C@@H](CCCC)C(=O)N[C@@H](C)C(=O)N[C@H](C(=O)N[C@@H](Cc1c[nH]cn1)C(=O)NCC(=O)N[C@@H](CC(N)=O)C(=O)N[C@@H](CCC(=O)O)C(=O)N[C@@H](CC(C)C)C(=O)N[C@@H](CCCNC(=N)N)C(=O)N[C@@H](CCC(=O)O)C(=O)N[C@@H](CC(C)C)C(=O)N[C@@H](C)C(=O)N[C@@H](CC(=O)O)C(=O)N[C@@H](CCCCN)C(=O)O)C(C)C)[C@@H](C)CC` [Peptide 4] (Ac-W[Nle]DDRFAAI[Nle]AVHGNELRELADK-OH), the “Average Tm of DocSTm” value stood at 56.8 ± 2.1 °C.
